Measured values reported in ChEMBL document CHEMBL1201862, “PubChem BioAssay data set” (2004).
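These data come from cells grown in 96-well plates and exposed to compound for 48 hours at five concentrations. Abbreviation: GI50, concentration required for 50% inhibition of growth.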 Active and inactive are the calls of the source. No stated cut-off is given here; in the data, active = GI50 up to about 1.1 µM and inactive = higher.

How the values were obtained:
Assay in all cases: NCI anticancer screen, dose series, 48 h
[1] = test system: COLO 205
[2] = test system: HOP-62
[3] = test system: Malme-3M
[4] = test system: NCI-H226
[5] = test system: NCI-H23
[6] = test system: NCI-H460
[7] = test system: OVCAR-3
[8] = test system: SF-268
[9] = test system: SK-MEL-5
[10] = test system: SNB-19
[11] = test system: SW-620
[12] = test system: TK-10
[13] = test system: UACC-62
[14] = test system: UO-31
[15] = test system: CAKI-1
[16] = test system: HCT-15
[17] = test system: SK-MEL-2
[18] = test system: A498

SMILES | GI50 [1] | GI50 [2] | GI50 [3] | GI50 [4] | GI50 [5] | GI50 [6] | GI50 [7] | GI50 [8] | GI50 [9] | GI50 [10] | GI50 [11] | GI50 [12] | GI50 [13] | GI50 [14] | GI50 [15] | GI50 [16] [µM] | GI50 [17] | GI50 [18]
COc1ccc(-c2cc(O)c3cc(Cl)ccc3n2)cc1 | > 100 µM (inactive) | > 100 µM (inactive) | > 100 µM (inactive) | > 100 µM (inactive) | > 100 µM (inactive) | > 100 µM (inactive) | > 100 µM (inactive) | > 100 µM (inactive) | > 100 µM (inactive) | > 100 µM (inactive) | > 100 µM (inactive) | > 100 µM (inactive) | > 100 µM (inactive) | > 100 µM (inactive) |  |  |  | 
O=C(CCc1nnc2s/c(=C\c3ccccc3Cl)c(=O)n12)Nc1cc(Cl)ccc1Cl |  | > 100 µM (inactive) | > 100 µM (inactive) | > 100 µM (inactive) | > 100 µM (inactive) | > 100 µM (inactive) | > 100 µM (inactive) | > 100 µM (inactive) | > 100 µM (inactive) | > 100 µM (inactive) | > 100 µM (inactive) | > 100 µM (inactive) | > 100 µM (inactive) | > 100 µM (inactive) | > 100 µM (inactive) | > 100 | > 100 µM (inactive) | 
CC1CC(c2ccc(Cl)c(Cl)c2)=Nc2ccccc2S1 (stereo not given) | > 100 µM (inactive) | > 100 µM (inactive) | > 100 µM (inactive) | > 100 µM (inactive) | > 100 µM (inactive) | > 100 µM (inactive) | 44.5 µM (inactive) | > 100 µM (inactive) | > 100 µM (inactive) | > 100 µM (inactive) | > 100 µM (inactive) | > 100 µM (inactive) | > 100 µM (inactive) | > 100 µM (inactive) | > 100 µM (inactive) | > 100 |  | > 100 µM (inactive)
[O-]/N=[N+](/[O-])C1CCCCC1=[N+]1CCOCC1 (stereo not given) | > 100 µM (inactive) | > 100 µM (inactive) | > 100 µM (inactive) | > 100 µM (inactive) | > 100 µM (inactive) | > 100 µM (inactive) | > 100 µM (inactive) | > 100 µM (inactive) |  | > 100 µM (inactive) | > 100 µM (inactive) | > 100 µM (inactive) | > 100 µM (inactive) | > 100 µM (inactive) | > 100 µM (inactive) |  | > 100 µM (inactive) | > 100 µM (inactive)
COC(=O)/C(C=O)=C/Sc1ccccc1 | 20 µM (inactive) | 45.4 µM (inactive) |  | 15.8 µM (inactive) | 36.4 µM (inactive) | 32.1 µM (inactive) | 21.3 µM (inactive) | 11 µM (inactive) | 14.2 µM (inactive) | 54.5 µM (inactive) | 37.9 µM (inactive) | 40.6 µM (inactive) | 22.2 µM (inactive) | 10.5 µM (inactive) | 24.2 µM (inactive) | 22.6 | 30.9 µM (inactive) | 
O=C1C(Cl)=C(Cl)C(=O)N1C1C2CC3CC(C2)CC1C3 (stereo not given) | 32.8 µM (inactive) | > 100 µM (inactive) | > 100 µM (inactive) | > 100 µM (inactive) | > 100 µM (inactive) | > 100 µM (inactive) |  | > 100 µM (inactive) | > 100 µM (inactive) | > 100 µM (inactive) | 47 µM (inactive) | > 100 µM (inactive) | > 100 µM (inactive) | > 100 µM (inactive) | 38.3 µM (inactive) | > 100 | > 100 µM (inactive) | > 100 µM (inactive)
O=C1OC(c2ccccc2)=N/C1=C/NC(Cc1c[nH]c2ccccc12)C(=O)O (stereo not given) | > 100 µM (inactive) | > 100 µM (inactive) | > 100 µM (inactive) | > 100 µM (inactive) | > 100 µM (inactive) | > 100 µM (inactive) | > 100 µM (inactive) | > 100 µM (inactive) | > 100 µM (inactive) | > 100 µM (inactive) | > 100 µM (inactive) | > 100 µM (inactive) | > 100 µM (inactive) | > 100 µM (inactive) |  | > 100 | > 100 µM (inactive) | > 100 µM (inactive)
CN1CCc2cc(O)c3cc2C1Cc1ccc(cc1)Oc1cc(ccc1O)CC1c2c(cc4c(c2O3)OCO4)CCN1C (stereo not given) | 13.5 µM (inactive) |  |  | 22.9 µM (inactive) | > 100 µM (inactive) | 46.2 µM (inactive) | 75 µM (inactive) | 33.1 µM (inactive) | 18.9 µM (inactive) | 44.6 µM (inactive) |  | 24.2 µM (inactive) | 24.2 µM (inactive) | 1.6 µM (inactive) |  | 22.5 | 16.1 µM (inactive) | 
Cc1ccc(NCC2(/N=C/c3ccccc3)OC(CO)C(O)C2O)cc1 (stereo not given) | 42.2 µM (inactive) | 12.4 µM (inactive) | 37.2 µM (inactive) | > 100 µM (inactive) | 54.1 µM (inactive) | 32.7 µM (inactive) | 41.7 µM (inactive) | 81.1 µM (inactive) | 23.3 µM (inactive) | > 100 µM (inactive) | 36.7 µM (inactive) | > 100 µM (inactive) | 54.1 µM (inactive) | 61.7 µM (inactive) | 46.6 µM (inactive) | 26.5 | 31 µM (inactive) | 
O=c1cc(-c2ccc(Cl)cc2)oc2cc(OCCCOc3ccc4c(=O)cc(-c5ccc(Cl)cc5)oc4c3)ccc12 | > 100 µM (inactive) | > 100 µM (inactive) | > 100 µM (inactive) | > 100 µM (inactive) | > 100 µM (inactive) | > 100 µM (inactive) | > 100 µM (inactive) | > 100 µM (inactive) | > 100 µM (inactive) | > 100 µM (inactive) | > 100 µM (inactive) | > 100 µM (inactive) | > 100 µM (inactive) |  | > 100 µM (inactive) | > 100 | > 100 µM (inactive) | 
CC1=CC2CC(C)C1(C)CCc1ccoc12 (stereo not given) | > 100 µM (inactive) | > 100 µM (inactive) | > 100 µM (inactive) |  | > 100 µM (inactive) | > 100 µM (inactive) | > 100 µM (inactive) | > 100 µM (inactive) | > 100 µM (inactive) | > 100 µM (inactive) | > 100 µM (inactive) | > 100 µM (inactive) | > 100 µM (inactive) | > 100 µM (inactive) | > 100 µM (inactive) | > 100 | > 100 µM (inactive) | > 100 µM (inactive)
CC(=O)c1sc(Nc2nnc(-c3ccc(-c4nnc(Nc5nc(C)c(C(C)=O)s5)o4)cc3)o2)nc1C | > 100 µM (inactive) | > 100 µM (inactive) | > 100 µM (inactive) | > 100 µM (inactive) | > 100 µM (inactive) | > 100 µM (inactive) | > 100 µM (inactive) | > 100 µM (inactive) |  | > 100 µM (inactive) | > 100 µM (inactive) | > 100 µM (inactive) | > 100 µM (inactive) | > 10 µM (inactive) | > 10 µM (inactive) | > 100 |  | > 100 µM (inactive)
O=C(CC1(O)C(=O)Nc2ccc(Br)cc21)c1cccc([N+](=O)[O-])c1 (stereo not given) | > 100 µM (inactive) | 49.5 µM (inactive) | > 100 µM (inactive) | 26.9 µM (inactive) | 43.9 µM (inactive) | > 100 µM (inactive) | 38.7 µM (inactive) | 39 µM (inactive) | > 10 µM (inactive) | 61.5 µM (inactive) | 37.8 µM (inactive) | > 100 µM (inactive) |  | 64.9 µM (inactive) | 40.9 µM (inactive) | 56 | 54.7 µM (inactive) | 
O=C1NC2CCC(C2)C1c1ccccc1 (stereo not given) | > 100 µM (inactive) |  | > 100 µM (inactive) | > 100 µM (inactive) | > 100 µM (inactive) | > 100 µM (inactive) | > 100 µM (inactive) | > 100 µM (inactive) | > 100 µM (inactive) | > 100 µM (inactive) | > 100 µM (inactive) | > 100 µM (inactive) | > 100 µM (inactive) | > 100 µM (inactive) |  |  |  | > 100 µM (inactive)
CCC12CCC(O)C1N(C)CCC2Sc1ccccc1 (stereo not given) | 80 µM (inactive) | > 100 µM (inactive) | 35.2 µM (inactive) | 23.4 µM (inactive) | > 100 µM (inactive) | > 100 µM (inactive) | > 100 µM (inactive) | 75.5 µM (inactive) | 33 µM (inactive) | > 100 µM (inactive) | > 100 µM (inactive) | > 100 µM (inactive) | > 100 µM (inactive) | 28.8 µM (inactive) |  | > 100 | > 100 µM (inactive) | > 100 µM (inactive)
O=C(O)C1c2ccccc2C(C(=O)O)c2ccccc21 (stereo not given) | > 100 µM (inactive) | > 100 µM (inactive) | > 100 µM (inactive) |  |  | > 100 µM (inactive) |  | > 100 µM (inactive) | > 100 µM (inactive) | > 100 µM (inactive) | > 100 µM (inactive) | > 100 µM (inactive) | > 100 µM (inactive) | > 100 µM (inactive) | > 100 µM (inactive) | > 100 | > 100 µM (inactive) | > 100 µM (inactive)
O=C(c1cc2ccccc2[nH]1)C(O)(c1cc2ccccc2[nH]1)c1cc2ccccc2[nH]1 | > 246 µM (inactive) | > 246 µM (inactive) | > 246 µM (inactive) | 50.9 µM (inactive) | 112 µM (inactive) | > 246 µM (inactive) | 20 µM (inactive) | > 246 µM (inactive) | > 246 µM (inactive) | > 246 µM (inactive) | > 246 µM (inactive) | > 246 µM (inactive) | > 246 µM (inactive) |  | > 246 µM (inactive) | > 246 | > 246 µM (inactive) | 
